Reference: ChEMBL document CHEMBL1201862, “PubChem BioAssay data set” (2004)
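Five compound concentrations were applied to cells in 96-well plates for 48 hours; endpoints were derived by simple linear interpolation of the resulting dose-response curve. GI50 marks 50% less growth.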 Active and inactive are the calls of the source. Cut-off read from the data, not from the text of the source: active = GI50 up to about 1.1 µM and inactive = higher.

Columns and labels:
Test in all cases: growth of human tumour cells (NCI), 48 h
A498 = tested on: A498
MOLT-4 = tested on: MOLT-4
HCT-116 = tested on: HCT-116
HCT-15 = tested on: HCT-15
SK-OV-3 = tested on: SK-OV-3
SK-MEL-5 = tested on: SK-MEL-5
NCI-H23 = tested on: NCI-H23
SK-MEL-28 = tested on: SK-MEL-28
SN12C = tested on: SN12C
HOP-62 = tested on: HOP-62
SNB-19 = tested on: SNB-19
HOP-92 = tested on: HOP-92
KM12 = tested on: KM12
RXF 393 = tested on: RXF 393
A549 = tested on: A549
OVCAR-3 = tested on: OVCAR-3
NCI/ADR-RES = tested on: NCI/ADR-RES
UACC-257 = tested on: UACC-257
KM-20L2 = tested on: KM-20L2
OVCAR-4 = tested on: OVCAR-4

Row | Structure (SMILES) | GI50 (A498) | GI50 (MOLT-4) | GI50 (HCT-116) | GI50 (HCT-15) [µM] | GI50 (SK-OV-3) | GI50 (SK-MEL-5) | GI50 (NCI-H23) | GI50 (SK-MEL-28) | GI50 (SN12C) | GI50 (HOP-62) | GI50 (SNB-19) | GI50 (HOP-92) | GI50 (KM12) | GI50 (RXF 393) | GI50 (A549) | GI50 (OVCAR-3) | GI50 (NCI/ADR-RES) | GI50 (UACC-257) | GI50 (KM-20L2) | GI50 (OVCAR-4)
1 | O=NN(CCCl)C(=O)Nc1ccc(Cl)c(Cl)c1 | > 83.8 µM (inactive) | > 100 µM (inactive) | > 100 µM (inactive) | > 71.6 | > 94.8 µM (inactive) | 71.6 µM (inactive) | > 69.7 µM (inactive) | > 100 µM (inactive) | > 100 µM (inactive) | 0.546 µM (active) | > 63 µM (inactive) | > 77.8 µM (inactive) | > 77.3 µM (inactive) | > 100 µM (inactive) | > 100 µM (inactive) | 41.9 µM (inactive) | 48.4 µM (inactive) | > 100 µM (inactive) | 25.3 µM (inactive) | 61.1 µM (inactive)
2 | CC(=O)Nc1ccc2oc(=O)c3ccccc3c2c1 | > 100 µM (inactive) | > 100 µM (inactive) | > 100 µM (inactive) | > 100 | – | > 100 µM (inactive) | > 100 µM (inactive) | > 100 µM (inactive) | > 100 µM (inactive) | > 100 µM (inactive) | > 100 µM (inactive) | > 100 µM (inactive) | > 100 µM (inactive) | > 100 µM (inactive) | > 100 µM (inactive) | > 100 µM (inactive) | > 100 µM (inactive) | > 100 µM (inactive) | – | > 100 µM (inactive)
3 | CC(C)[C@](O)(C(=O)OCC1CC[N+]2([O-])CC[C@@H](O)C12)[C@H](C)O (stereo not given in full) | > 59.4 µM (inactive) | > 375 µM (inactive) | > 255 µM (inactive) | > 375 | > 375 µM (inactive) | > 334 µM (inactive) | > 375 µM (inactive) | > 375 µM (inactive) | > 375 µM (inactive) | > 375 µM (inactive) | > 375 µM (inactive) | > 375 µM (inactive) | > 375 µM (inactive) | > 375 µM (inactive) | > 375 µM (inactive) | > 375 µM (inactive) | > 375 µM (inactive) | > 375 µM (inactive) | > 375 µM (inactive) | > 375 µM (inactive)
4 | CCOC(=O)CN1CCS/C1=N/C#N | > 100 µM (inactive) | > 100 µM (inactive) | > 100 µM (inactive) | > 100 | > 100 µM (inactive) | > 100 µM (inactive) | > 87.5 µM (inactive) | > 100 µM (inactive) | > 100 µM (inactive) | > 100 µM (inactive) | > 100 µM (inactive) | > 60 µM (inactive) | > 100 µM (inactive) | > 100 µM (inactive) | > 100 µM (inactive) | > 100 µM (inactive) | > 100 µM (inactive) | > 100 µM (inactive) | > 100 µM (inactive) | > 100 µM (inactive)
5 | Cc1cn(C2CC(O)C(Cn3cc(Cn4nc(Br)c(=O)[nH]c4=O)nn3)O2)c(=O)[nH]c1=O (stereo not given) | > 100 µM (inactive) | > 100 µM (inactive) | > 100 µM (inactive) | > 100 | > 100 µM (inactive) | > 100 µM (inactive) | > 100 µM (inactive) | > 100 µM (inactive) | > 100 µM (inactive) | > 100 µM (inactive) | > 100 µM (inactive) | – | > 100 µM (inactive) | > 100 µM (inactive) | > 100 µM (inactive) | > 100 µM (inactive) | > 100 µM (inactive) | > 100 µM (inactive) | – | > 100 µM (inactive)
6 | C[N+](C)(CCO)CCN1c2ccccc2Sc2ccccc21 | > 10 µM (inactive) | > 10 µM (inactive) | > 10 µM (inactive) | > 10 | > 10 µM (inactive) | > 10 µM (inactive) | > 10 µM (inactive) | > 10 µM (inactive) | > 10 µM (inactive) | > 10 µM (inactive) | > 10 µM (inactive) | – | > 10 µM (inactive) | > 10 µM (inactive) | > 10 µM (inactive) | > 10 µM (inactive) | > 10 µM (inactive) | – | – | > 10 µM (inactive)
7 | COc1ccc2c(c1)c1c(n2CCN2CCCCC2)-c2cccc(OC)c2CC1 | 20.1 µM (inactive) | 16.4 µM (inactive) | 24.7 µM (inactive) | 8.99 | 33.4 µM (inactive) | 18.2 µM (inactive) | 14.8 µM (inactive) | 15.4 µM (inactive) | 14.9 µM (inactive) | 16.7 µM (inactive) | 13.4 µM (inactive) | > 10 µM (inactive) | 13 µM (inactive) | – | 27.9 µM (inactive) | 17.2 µM (inactive) | 18.7 µM (inactive) | 18.2 µM (inactive) | – | 29.2 µM (inactive)
8 | COC1CCC(CO)OO1 (stereo not given) | 13.1 µM (inactive) | 33.9 µM (inactive) | 30.3 µM (inactive) | – | > 100 µM (inactive) | – | 18.8 µM (inactive) | 52 µM (inactive) | – | 9.64 µM (inactive) | 41.4 µM (inactive) | 28.6 µM (inactive) | 30.9 µM (inactive) | 33.7 µM (inactive) | – | 18 µM (inactive) | – | 45.2 µM (inactive) | 23.9 µM (inactive) | 45.9 µM (inactive)
9 | CC(=O)NC(CCCCNC(=O)OC(C)(C)C)C(=O)O (stereo not given) | 26.1 µM (inactive) | > 100 µM (inactive) | > 100 µM (inactive) | > 100 | – | > 100 µM (inactive) | – | > 100 µM (inactive) | – | > 100 µM (inactive) | > 100 µM (inactive) | – | – | – | > 100 µM (inactive) | > 100 µM (inactive) | > 100 µM (inactive) | > 100 µM (inactive) | – | > 100 µM (inactive)
10 | O=C1OC2CC=CC1C2 (stereo not given) | > 100 µM (inactive) | > 100 µM (inactive) | > 100 µM (inactive) | > 100 | > 100 µM (inactive) | > 100 µM (inactive) | > 100 µM (inactive) | > 100 µM (inactive) | > 100 µM (inactive) | > 100 µM (inactive) | > 100 µM (inactive) | > 100 µM (inactive) | > 100 µM (inactive) | > 100 µM (inactive) | > 100 µM (inactive) | > 100 µM (inactive) | > 100 µM (inactive) | > 100 µM (inactive) | > 100 µM (inactive) | > 100 µM (inactive)
11 | COc1ccc(C[C@H](N)C(=O)N2C[C@@H](CO)C[C@@H](n3cnc4c(N(C)C)ncnc43)C2)cc1 | – | > 100 µM (inactive) | > 100 µM (inactive) | > 100 | > 100 µM (inactive) | > 100 µM (inactive) | > 100 µM (inactive) | > 100 µM (inactive) | – | > 100 µM (inactive) | > 100 µM (inactive) | > 100 µM (inactive) | > 100 µM (inactive) | – | > 100 µM (inactive) | > 100 µM (inactive) | – | > 100 µM (inactive) | > 100 µM (inactive) | –
12 | CSC1=C(SC)C(=O)c2cn(C)c(=O)cc2C1=O | 15.1 µM (inactive) | 1.08 µM (active) | 1.81 µM (inactive) | 2.14 | 17.5 µM (inactive) | 1.75 µM (inactive) | 4.57 µM (inactive) | 2.82 µM (inactive) | 3.27 µM (inactive) | 9.38 µM (inactive) | 17.1 µM (inactive) | 0.904 µM (active) | 21.6 µM (inactive) | 1.89 µM (inactive) | 16.1 µM (inactive) | 1.91 µM (inactive) | > 19.7 µM (inactive) | 2.34 µM (inactive) | – | 1.97 µM (inactive)
13 | COc1ccc(NC(=S)NNC(=O)c2nsc3ccccc23)cc1 | – | 24.5 µM (inactive) | 28.4 µM (inactive) | 21.8 | – | 30.8 µM (inactive) | 41.8 µM (inactive) | 34.3 µM (inactive) | 31.8 µM (inactive) | 43.5 µM (inactive) | 26.9 µM (inactive) | 17.4 µM (inactive) | 37.3 µM (inactive) | 22 µM (inactive) | 37.2 µM (inactive) | 22.2 µM (inactive) | – | 36 µM (inactive) | 39.1 µM (inactive) | 62.2 µM (inactive)
14 | CC(C)(C)[Si](C)(C)OCCCC#CCO | > 100 µM (inactive) | 92.7 µM (inactive) | – | > 100 | > 100 µM (inactive) | > 100 µM (inactive) | > 100 µM (inactive) | > 100 µM (inactive) | > 100 µM (inactive) | – | > 100 µM (inactive) | – | > 100 µM (inactive) | > 100 µM (inactive) | > 100 µM (inactive) | – | – | > 100 µM (inactive) | > 100 µM (inactive) | > 100 µM (inactive)
15 | CSCCC(NOC(=O)Cc1ccccc1)P(=O)(O)c1ccccc1 (stereo not given) | – | > 100 µM (inactive) | > 100 µM (inactive) | > 100 | > 100 µM (inactive) | > 100 µM (inactive) | > 100 µM (inactive) | > 100 µM (inactive) | > 100 µM (inactive) | > 100 µM (inactive) | > 100 µM (inactive) | > 100 µM (inactive) | – | – | > 100 µM (inactive) | > 100 µM (inactive) | > 100 µM (inactive) | > 100 µM (inactive) | – | > 100 µM (inactive)
16 | Nc1ncnc2c1nnn2C1OC(CO)C(O)C1O (stereo not given) | 3.94 µM (inactive) | 5.41 µM (inactive) | 1.9 µM (inactive) | 2.54 | 0.822 µM (active) | 4 µM (inactive) | 7.82 µM (inactive) | 12.4 µM (inactive) | 1.17 µM (inactive) | 6.05 µM (inactive) | 5.66 µM (inactive) | 7.14 µM (inactive) | 4.21 µM (inactive) | – | 3.65 µM (inactive) | 5.5 µM (inactive) | 8.97 µM (inactive) | 8.93 µM (inactive) | 4.2 µM (inactive) | 8.85 µM (inactive)
